Patent US20130018062A1, “Pain therapy with metabolism blocked antifolates” (priority 2011, published 2013)
Where two headings read alike, the source gives them in different places.

Experiments:
[1] = system: patients with Rheumatoid Arthritis; assay: Morning stiffness and swollen joints in patients with Rheumatoid Arthritis treated with M-Trex (Example-6); format: in vivo, human
Text: MS (Morning Stiffness); S. Joints (Swollen Joints) were remarkably responsive to M-Trex therapy. Stiffness exacerbates Pain especially in joints by virtue of inflexibility and reduction is blood circulation. Swelling of joints is secondary to inflammation caused by autoimmune response in patients with Rheumatoid Arthritis. […] The initial numbers represents the values at the start of the study before the treatment and the remaining four numbers are values determined during each visit while taking M-Trex medication.
In joints stiffness (duration measured in minutes as above) is caused by inflammation of the synovium that lines the joint. Inflammation due to bone spurs as in Oesteo-arthritis causes Pain. Thus reduction of stiffness reduces the severity of inflammation and Pain. Abnormal tissue growth characterized by benign and malignant neoplasms cause stiffness due to compression of tissues, interfering with blood flow and irritation of the autonomic nervous system. Metabolism blocked antifolates are shown to be capable of decompression of tissues by interfering with tissue growth as shown in Examples 4, 5 and 6. These examples establish that metabolism blocked antifolates can decompress cancer tissues and ameliorate cancer pain.

[2] = system: C-Reactive Protein (CRP); set-up: unit not given here; settings: RA patients on therapy with M-Trex, cited from earlier work
[3] = Laboratory values (toxicity) of Rheumatoid Arthritis patients on M-Trex; format: in vivo, human; settings: M-Trex 7.5 mg per day; for CREATININE / GLUCOSE / SGOT / ALK. PHOSPHAT / SGTP / HEMOGLOB: RA patients; for ALK. PHOSPHAT / SGTP: in U/L (unit assumed); for HEMOGLOB: in g/dL (unit assumed)
[4] = system: Human HCT-8 Colon Xenograft; assay: Antitumor activity in nude mice bearing human HCT-8 colon xenograft (Example-4); format: in vivo; settings: i.v. push daily × 5 at maximum tolerated dose (M-Trex 4.0, MTX 1.0 mg/kg/day)
Text: There are three general accepted methods for the evaluation of Pain in patients suffering from a number of diseases. They are Visual Analog Scale (VAS); Numeric rating Scale (NRS) and Verbal Categorical Rating Scale […]. Of these three assessment methods VAS is considered to be most reliable in a majority of cases to evaluate and quantify the magnitude of the perception of Pain. Clinical trials conducted by Castaneda and Nair used VAS to assess pain intensity in RA patients receiving 10-DAAM in one trial [G. Alarcon, O. Castaneda, W. J. Koopman, C. L. Krumdieck, and M. G. Nair. U.S. Pat. No. 5,030,634 (1991)] and M-Trex (CH-1504) in another trial conducted separately. Almost all cases of cancer Pain is due to tissue inflammation, tissue compression and tissue damage secondary to rapid proliferation of cells. Therefore any therapeutic intervention that shrinks proliferating tissues can bring about significant reduction in Pain. Shown below is the efficacy of M-Trex in shrinking human colon cancer transplanted and growing in nude mice.

[5] = system: patients with Rheumatoid Arthritis; assay: Pain assessment by VAS scale in patients treated with M-Trex (Example-1); format: in vivo, human
Text: Of special importance was the novel observation of the ability of M-Trex to substantially reduce Pain in human subjects who were suffering from inflammation caused by autoimmune response. [O. Castaneda and M. G. Nair. Controlled trial of methotrexate versus CH-1504 in the treatment of Rheumatoid Arthritis. The J. Rheumatology. 33, 862-64, 2006.] […] Another unique observation with M-Trex was its ability to shrink human tumor xenografts in immuno-compromised mice. The ability of metabolism blocked antifolate M-Trex to shrink rapidly proliferating human tissues is representative and results in Pain reduction secondary to such proliferation. [EXAMPLE-1]** ** Pain assessment was made using the VAS scale every four weeks. Patients were treated with a daily oral dose of 7.5 mg/day of M-Trex during the duration of measurements. […] Pain as assessed by VAS was reduced from a scale of 7.2 to 1.8.
There are three general accepted methods for the evaluation of Pain in patients suffering from a number of diseases. They are Visual Analog Scale (VAS); Numeric rating Scale (NRS) and Verbal Categorical Rating Scale […]. Of these three assessment methods VAS is considered to be most reliable in a majority of cases to evaluate and quantify the magnitude of the perception of Pain. […]

[6] = first visit while taking M-Trex
[7] = fourth visit while taking M-Trex
[8] = second visit while taking M-Trex
[9] = start of the study before the treatment
[10] = third visit while taking M-Trex

With `C=C(CC(NC(=O)c1ccc(CCc2ccc3nc(N)nc(N)c3c2)cc1)C(=O)O)C(=O)O` (centres unmarked) [M-Trex, 4′-methylene-5,8-10-trideazaaminopterin] the “MS (Morning Stiffness), duration” value [1, 6] was 26′ minutes, the “S. Joints (number of Swollen Joints)” value [1, 6] was 5.6 and the “MS (Morning Stiffness), duration” value [1, 7] was 14′ minutes. The “S. Joints (number of Swollen Joints)” value [1, 7] was 2.9, the “MS (Morning Stiffness), duration” value [1, 8] was 22′ minutes and the “S. Joints (number of Swollen Joints)” value [1, 8] was 3.5. For the same compound, the “MS (Morning Stiffness), duration” value [1, 9] was 99′ minutes, the “S. Joints (number of Swollen Joints)” value [1, 9] was 12.5 and the “MS (Morning Stiffness), duration” value [1, 10] was 20′ minutes. For the same compound, the “S. Joints (number of Swollen Joints)” value [1, 10] was 3.0, the “Plasma CRP Levels” value ([2]; visit at 4 weeks) was 22.1 and the “Plasma CRP Levels” value ([2]; visit at 8 weeks) was 20.7. For the same compound, the “Plasma CRP Levels” value ([2]; visit at 12 weeks) was 17.7, the “Plasma CRP Levels” value ([2]; visit at 16 weeks) was 13.6 and the CREATININE ([3]; VISIT 2) was 0.79 mg/dL. The GLUCOSE ([3]; VISIT 2) was 83.8 mg/dL, the SGOT ([3]; VISIT 2) was 14.6 U/L and the “ALK. PHOSPHAT” value ([3]; VISIT 2) was 107.75. The SGTP ([3]; VISIT 2) was 17.75, the HEMOGLOB ([3]; VISIT 2) was 11.77 and the CREATININE ([3]; VISIT 3) was 0.95 mg/dL. The GLUCOSE ([3]; VISIT 3) was 95 mg/dL, the SGOT ([3]; VISIT 3) was 16 U/L and the “ALK. PHOSPHAT” value ([3]; VISIT 3) was 86. It also gave an SGTP ([3]; VISIT 3) of 17, an HEMOGLOB ([3]; VISIT 3) of 12.43 and a CREATININE ([3]; VISIT 4) of 0.85 mg/dL. For the same compound, the GLUCOSE ([3]; VISIT 4) was 87.5 mg/dL, the SGOT ([3]; VISIT 4) was 16 U/L and the “ALK. PHOSPHAT” value ([3]; VISIT 4) was 89.3. The SGTP ([3]; VISIT 4) was 25, the HEMOGLOB ([3]; VISIT 4) was 12.18 and the CREATININE ([3]; VISIT 5) was 0.85 mg/dL. The GLUCOSE ([3]; VISIT 5) was 88.1 mg/dL, the SGOT ([3]; VISIT 5) was 17.3 U/L and the “ALK. PHOSPHAT” value ([3]; VISIT 5) was 87.1. The SGTP ([3]; VISIT 5) was 20, the HEMOGLOB ([3]; VISIT 5) was 12.26 and the CREATININE ([3]; VISIT 6) was 0.92 mg/dL. The GLUCOSE ([3]; VISIT 6) was 92.4 mg/dL, the SGOT ([3]; VISIT 6) was 14.9 U/L and the “ALK. PHOSPHAT” value ([3]; VISIT 6) was 85.42. For the same compound, the SGTP ([3]; VISIT 6) was 18.21, the HEMOGLOB ([3]; VISIT 6) was 12.56 and the CREATININE ([3]; VISIT 7) was 0.84 mg/dL. For the same compound, the GLUCOSE ([3]; VISIT 7) was 90.3 mg/dL, the SGOT ([3]; VISIT 7) was 15.2 U/L and the “ALK. PHOSPHAT” value ([3]; VISIT 7) was 86.5. For the same compound, the SGTP ([3]; VISIT 7) was 18, the HEMOGLOB ([3]; VISIT 7) was 12.48 and the “Toxicity according to laboratory values” ([3]; patients with Rheumatoid Arthritis) was “not associated with any measurable toxicity”. The “MTGI, Maximum Tumor Growth Inhibition (% of control)” value ([4]; nude mice, HCT-8 xenograft) was 91.4 ± 2.2%, the “Tumor doubling time, treated/control (%)” value ([4]; nude mice, HCT-8 xenograft) was 623.08% and the “TD, Tumor Doubling Time” value ([4]; control 2.6 ± 0.8 days) was 16.2 ± 3.2 days. For the same compound, the “Pain as assessed by VAS” value ([5]; starting value from which pain was reduced, Rheumatoid Arthritis patients) was 7.2 and the “Pain as assessed by VAS” value ([5]; value reached on daily oral dose of 7.5 mg/day of M-Trex, assessed every four weeks) was 1.8.
